According to patent publication US20250025454A1 (priority 2021, published 2025):
“And” between values parts separate entries of the source, which are not always exact repeats. Equal entries are not always repeated. “Also recorded” adds a separate entry of the source. Where two headings read alike, the source gives them in different places.

Tests used:
SARS-CoV-2 [1] = settings: 35 compounds tested
[2] = male, Sprague-Dawley, rat, in vivo
SARS-CoV-2 [3] = settings: Scripps ReFrame database; cited from earlier work
[4] = Scripps ReFrame database; cited from earlier work
SARS-CoV-2 [5] = settings: Scripps ReFrame database; cited from earlier work; remark: listed apart in the source
in vivo [6] = settings: female, 129/S, mouse
in vivo [7] = settings: male, Sprague-Dawley, rat, po; for AUC(0-t): AUClast
[8] = single oral dose, comparable for all doses, cited from earlier work
[9] = cited from earlier work
[10] = in vivo; cited from earlier work
[11] = Pharmacokinetics (plasma, lung at 24 h) after single oral dosing in male Sprague-Dawley rats; settings: for AUC∞ / t1/2 / Cmax / AUC(0-t) / AUC(0-inf) / Tmax: male SD rat plasma; for AUC(0-t): AUClast; for half-life: t1/2, male SD rat plasma
[12] = 1000 mg/kg, Plasma concentration
[13] = single oral 250 mg/kg (Group 1), individual rats 450, 451, 452, listed as MDL-001, 250 mg/kg
[14] = male, Sprague-Dawley, rat, in vivo, po, 250 mg/kg, single oral 250 mg/kg (Group 1), mean
[15] = male, Sprague-Dawley, rat, in vivo, po, 500 mg/kg, single oral 500 mg/kg (Group 2), individual rats 453, 454, 455
[16] = male, Sprague-Dawley, rat, in vivo, po, 500 mg/kg, single oral 500 mg/kg (Group 2), mean
[17] = male, Sprague-Dawley, rat, in vivo, po, 750 mg/kg, single oral 750 mg/kg (Group 3), individual rats 456, 457, 458

Cc1c(-c2ccc(O)cc2)n(Cc2ccc(OCCN3CCCCC3)cc2)c2ccc(O)cc12 [Pipendoxifene, 2-(4-hydroxyphenyl)-3-methyl-1-[[4-(2-piperidin-1-ylethoxy)phenyl]methyl]indol-5-ol]
activity in the HeLa-ACE2 cell-based SARS-CoV-2 assay (SARS-CoV-2 [1]): demonstrated activity | increase of plasma AUClast [2]: about 2 fold | AUClast ([2]; po, 250 mg/kg): 3515 ng·h/mL | Tmax ([2]; po, 250 mg/kg): 5.33 h | Tmax ([2]; po, 500 mg/kg): 6.67 h | Tmax ([2]; po, 750 mg/kg): 6.67 h | activity in HTS (SARS-CoV-2 [3]): INACTIVE | activity in HTS [4]: INACTIVE | activity in HTS (SARS-CoV-2 [5]): INACTIVE | Kp (in vivo [6]; C24 h lung concentrations relative to plasma concentrations (higher)): 3 to 4 | Kp (in vivo [6]; po, 250 mg/kg, L/P Ratio): 4.04 | Kp (in vivo [6]; po, L/P Ratio): 4.03 | AUC(0-t) (in vivo [7]; 250 mg/kg): 4120 ng·h/mL | Cmax (in vivo [7]; 250 mg/kg): 336 ng/mL | Tmax (in vivo [7]; 250 mg/kg, tmax): 6 h | Cmax (in vivo [7]; 500 mg/kg): 462 ng/mL | Tmax (in vivo [7]; 500 mg/kg, tmax): 6 h | AUC(0-t) (in vivo [7]; 750 mg/kg): 5260 ng·h/mL | Tmax (in vivo [7]; 750 mg/kg, tmax): 6 h | AUC(0-t) (in vivo [7]; 1000 mg/kg): 5700 ng·h/mL | AUC(0-inf) (in vivo [7]; 1000 mg/kg, AUC∞): 7730 ng·h/mL | Cmax (in vivo [7]; 1000 mg/kg): 452 ± 75 ng/mL | concentration at 0.25 h (in vivo [7]; [12]): 5.05 ng/mL | concentration at 0.25 hr (in vivo [7]; [12]): 5.05 ng/mL | concentration at 2 h (in vivo [7]; [12]): 226 ng/mL | concentration at 2 hr (in vivo [7]; [12]): 226 ng/mL | concentration at 4 h (in vivo [7]; [12]): 335 ng/mL | concentration at 4 hr (in vivo [7]; [12]): 335 ng/mL | concentration at 6 h (in vivo [7]; [12]): 489 ng/mL | concentration at 8 h (in vivo [7]; [12]): 295 ng/mL | concentration at 8 hr (in vivo [7]; [12]): 295 ng/mL | Tmax (in vivo [7]; 1000 mg/kg, tmax): 6 h | Tmax (in vivo [7]; Mean Tmax (plasma), range): 5.3 to 6 h | t1/2 [8]: 30 ± 16 h | t1/2 ([8]; listed as pipendoxifene): 30 h | mean t1/2 ([9]; 150 mg dose): 15.8 h | mean t1/2 ([9]; 200 mg dose): 26 h | Clearance ([9]; in vivo): 4 to 10.5 h⁻¹ kg⁻¹ | time to steady-state plasma levels ([9]; in vivo): 4 to 5 days | primary metabolite [10]: indole glucuronide | Lung C24 h over SARS-CoV-2 IC50 ([11]; 250 mg/kg): 9.7 fold | Lung C24 h over SARS-CoV-2 IC50 ([11]; 500 mg/kg): 13.7 fold | Lung C24 h over SARS-CoV-2 IC50 ([11]; 1000 mg/kg): 40.9 fold | Lung C24 h over SARS-CoV-2 IC50 ([11]; 6750 mg/kg (so in the source)): 13.3 fold | Lung C24 h over SARS-CoV-2 IC50 ([11]; 'higher dose', sentence in the rat section): 5.4 fold | AUC∞ [11, 13]: 4132 ng·h/mL and 5119 ng·h/mL and 2549 ng·h/mL | t1/2 [11, 13]: 3.83 h and 8.95 h and 5.42 h | t1/2 ([11]; single oral 250 mg/kg (Group 1), mean, listed as MDL-001, 250 mg/kg): 6.06 h | Cmax ([11]; single oral 1000 mg/kg (Group 4), one outlier excluded, individual rats 459, 460, 461, listed as MDL-001, 1000 mg/kg): 501 ng/mL | AUC∞ ([11]; single oral 1000 mg/kg (Group 4), one outlier excluded, individual rats 459, 460, listed as MDL-001, 1000 mg/kg): 7888 ng·h/mL | adverse reactions / tolerability ([11]; male SD rat, single PO dose 250-1000 mg/kg, listed as MDL-001): well tolerated with no adverse clinical signs; also recorded: No adverse reactions were observed | Kp at 24 h ([11]; male, Sprague-Dawley, rat, in vivo, Lung/Plasma C24 h ratios, range, Day 1, across the dose range): 97 to 122 | AUC(0-t) ([11]; male, Sprague-Dawley, rat, in vivo, po, 250 mg/kg, single oral 250 mg/kg (Group 1), individual rats 450, 451, 452): 4040 ng·h/mL | AUC(0-t) [11, 14]: 3520 ± 980 ng·h/mL | AUC(0-inf) [11, 14]: 3930 ng·h/mL | Cmax ([11]; male, Sprague-Dawley, rat, in vivo, po, 250 mg/kg, Cmax, single oral 250 mg/kg (Group 1), individual rats 450, 451, 452): 334 ng/mL | Cmax ([11]; male, Sprague-Dawley, rat, in vivo, po, 250 mg/kg, Cmax, single oral 250 mg/kg (Group 1), mean): 311 ± 42 ng/mL | half-life [11, 14]: 6.06 ± 2.62 h | Tmax [11, 14]: 5.33 ± 1.15 h | AUC(0-t) [11, 15]: 5730 ng·h/mL | AUC(0-inf) [11, 15]: 6410 ng·h/mL | AUC(0-inf) [11, 16]: 5850 ng·h/mL | half-life [11, 15]: 6.08 h | half-life [11, 16]: 5.2 ± 1.34 h | Tmax [11, 15]: 8 h | Tmax [11, 16]: 6.67 ± 1.15 h | AUC(0-t) [11, 17]: 7530 ng·h/mL | AUC(0-inf) [11, 17]: 7920 ng·h/mL | AUC(0-inf) ([11]; male, Sprague-Dawley, rat, in vivo, po, 750 mg/kg, single oral 750 mg/kg (Group 3), mean): 5520 ng·h/mL | Cmax ([11]; male, Sprague-Dawley, rat, in vivo, po, 750 mg/kg, Cmax, single oral 750 mg/kg (Group 3), mean): 415 ± 72 ng/mL | half-life [11, 17]: 4.77 h
